Values quoted from earlier work in patent US7033983B2, “Detergent compositions” (Unilever Home and Personal Care USA a division of Conopco, …, priority 2002, dated 2006).

Settings: highly water-soluble materials; saturated solution in 100 g deionised water at 20° C.

- Water Solubility: >100 g/100 g
SMILES: NC(N)=O [Urea]
